Results as given in PMC8879825, “Identification of α-Glucosidase Inhibitors from Scutellaria edelbergii: ESI-LC-MS and Computational Approach” (Molecules, 2022).
Values after ≈ are worked out from the molar mass of the structure shown.

Target: yeast α-glucosidase enzymes
Experiment: α-Glucosidase inhibitory assay
Format: biochemical
Details: substrate p-nitrophenyl-α-D-glucopyranoside, pH 6.8, 37 °C
Protocol: The α-glucosidase assay was performed using 50 mM phosphate buffer (pH 6.8). All samples were dissolved in DMSO. An enzyme (2 U/2 mL) 20 µL/well and test samples (0.5 mg/mL) 20 µL/well and 135 µL/well phosphate buffer were loaded into a 96-well plate, followed by 15 min of incubation at 37 °C. Substrate p-nitrophenyl-α-D-glucopyranoside (0.7 mM) 25 µL/well was added to the 96-well plate after 15 min of incubation, and readings were measured at 400 nm for 30 min. DMSO 7% was used as a positive control. Percent inhibition was calculated by using the following formula [30]. % Inhibition=100×O.D of tested samples/O.D. of control−100
OD is the optical density of the tested samples.

IC50 (α-glucosidase inhibition): 377.26 ± 1.20 µg/mL (≈ 584 µM)
Compound: C[C@H]1O[C@H](O[C@H]2[C@H](O)[C@@H](O)[C@@H](O[C@H]3[C@H](O)[C@@H](O)C(O)O[C@@H]3CO)O[C@@H]2CO)[C@H](O)[C@@H](O)[C@@H]1N[C@H]1C=C(CO)[C@@H](O)[C@H](O)[C@H]1O (stereo partly shown) [acarbose]
